Reference: patent US20080038278A1, “GPAT3 encodes a mammalian, microsomal acyl-coa:glycerol 3- phosphate acyltransferase” (priority 2006, published 2008)
Each block holds one molecule with its values, some of them ahead of it.

Key:
[1] = target: T1, hGPAT3 (Homo sapiens, UniProt Q53EU6); assay: GPAT activity assay (TLC separation of LPA) in lysates of cells overexpressing hGPAT3; assay type: biochemical; settings: for substrate concentration at half-maximal activity (hGPAT3-dependent LPA formation): hGPAT3 expressed in Sf9 cells, nonpurified lysate, other substrate at 100 μM; for increase in LPA formation conferred by hGPAT3 overexpression after NEM pretreatment: preincubated 15 min with NEM (0.4 mM, 0.4 μM elsewhere in the source)
T1 construct: full-length mouse and human GPAT3 were cloned by PCR amplification from cDNA libraries; made in house; host or cells: Sf9 insect cells (baculovirus, pFASTBAC1), total lysate; some experiments used lysates of HEK293 cells transfected with hGPAT3 in pcDNA3.1
T1 sequence (Q53EU6 1-434): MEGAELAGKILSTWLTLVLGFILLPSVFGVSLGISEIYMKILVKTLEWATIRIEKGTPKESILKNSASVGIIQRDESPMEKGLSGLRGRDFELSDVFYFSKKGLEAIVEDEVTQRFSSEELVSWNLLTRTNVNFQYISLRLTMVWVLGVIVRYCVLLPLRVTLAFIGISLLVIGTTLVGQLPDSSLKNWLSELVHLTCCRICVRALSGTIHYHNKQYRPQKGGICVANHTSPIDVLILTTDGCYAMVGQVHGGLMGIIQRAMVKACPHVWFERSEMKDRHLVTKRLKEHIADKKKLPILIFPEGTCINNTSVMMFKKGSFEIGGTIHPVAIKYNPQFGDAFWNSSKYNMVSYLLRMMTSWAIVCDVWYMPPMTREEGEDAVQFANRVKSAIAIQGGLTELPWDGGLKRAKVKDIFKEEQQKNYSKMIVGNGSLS
Excerpt: Sf9 cells were infected with recombinant baculovirus at an MOI of 10 for 64 hrs. Cell pellets were harvested in ice-cold phosphate-buffered saline (PBS), lysed by sonication or Parr bomb, and total lysate was used immediately for enzyme assay. For subcellular fractionation, cel.ls were lysed with a rapid nitrogen decompression method (Parr Instrument Company, IL), followed by differential centrifugation at 8,000g (mitochondrial fraction) and 1 00,000g (microsomal fraction). Total protein concentration was assayed using a Bio-Rad protein assay with bovine serum albumin (BSA) as a standard (Bio-Rad, Hercules, Calif.). GPAT activity was determined by measuring the conversion of glycerol 3-phosphate (G3 P) to 1-acyl-sn-glycerol 3-phosphate in the presence of acyl-CoA. Formation of enzymatic products was detected by either the conventional 1-butanol extraction method followed by scintillation counting, or by thin layer chromatography (TLC) separation followed by exposure to a phosphorimager screen. GPAT activity assay by I -butanol extraction was performed as described (Yet et al., supra; Haldar and Vancura (1992) Methods Enzymol. 209:64-72). Briefly, cell lysates containing 100 μg protein were incubated for 20 min at room temperature in 75 mM Tris HCl, pH 7.5, 4 mM MgCl2, 1 mg/ml fatty acid-free BSA, 8 mM NaF, 50 μM lauroyl-CoA, 3 mM glycerol 3-phosphate, and 1 μCi of [^3H]glycerol 3-phosphate (30 Ci/mmol, American Radiolabeled Chemicals, Inc., St. Louis, Mo.) in a total volume of 250 μl. The reaction was stopped by addition of 0.5 ml of water-saturated 1-butanol and 0.5 ml of 1-butanol-saturated water followed by a vigorous vortex for 5 min. After a brief spin, the top phase (butanol) was transferred to a fresh tube and washed again with 0.5 ml of butanol-saturated water. Finally, an aliquot of the butanol phase was mixed with scintillation cocktail to count radioactivity using Accurate Radioisotope Counting (ARC).
To assess the GPAT activity more precisely, a TLC separation procedure was utilized. […] For TLC, enzymatic products were identified using standards detected by exposure to […]. All quantitative data are expressed as mean±S.E. Statistical analyses for differences between two groups were carried out using a Student's t-test.
To further investigate the role of GPAT3 in TAG and/or phospholipid synthesis in mammalian cells, GPAT3 was overexpressed in HEK293 cells and the incorporation of [^14C]oleic acid into TAG or phospholipids was measured. […]

[2] = target: T2, human mtGPAT1 (Homo sapiens, UniProt Q9HCL2); assay: GPAT activity assay (TLC separation of LPA) in lysates of HEK293 cells overexpressing mtGPAT1; assay type: biochemical; settings: preincubated 15 min with NEM
T2 construct: expressed in transfected cells; host or cells: HEK293 cells, transient transfection (FUGENE 6); total lysate assayed
T2 sequence (Q9HCL2 1-828): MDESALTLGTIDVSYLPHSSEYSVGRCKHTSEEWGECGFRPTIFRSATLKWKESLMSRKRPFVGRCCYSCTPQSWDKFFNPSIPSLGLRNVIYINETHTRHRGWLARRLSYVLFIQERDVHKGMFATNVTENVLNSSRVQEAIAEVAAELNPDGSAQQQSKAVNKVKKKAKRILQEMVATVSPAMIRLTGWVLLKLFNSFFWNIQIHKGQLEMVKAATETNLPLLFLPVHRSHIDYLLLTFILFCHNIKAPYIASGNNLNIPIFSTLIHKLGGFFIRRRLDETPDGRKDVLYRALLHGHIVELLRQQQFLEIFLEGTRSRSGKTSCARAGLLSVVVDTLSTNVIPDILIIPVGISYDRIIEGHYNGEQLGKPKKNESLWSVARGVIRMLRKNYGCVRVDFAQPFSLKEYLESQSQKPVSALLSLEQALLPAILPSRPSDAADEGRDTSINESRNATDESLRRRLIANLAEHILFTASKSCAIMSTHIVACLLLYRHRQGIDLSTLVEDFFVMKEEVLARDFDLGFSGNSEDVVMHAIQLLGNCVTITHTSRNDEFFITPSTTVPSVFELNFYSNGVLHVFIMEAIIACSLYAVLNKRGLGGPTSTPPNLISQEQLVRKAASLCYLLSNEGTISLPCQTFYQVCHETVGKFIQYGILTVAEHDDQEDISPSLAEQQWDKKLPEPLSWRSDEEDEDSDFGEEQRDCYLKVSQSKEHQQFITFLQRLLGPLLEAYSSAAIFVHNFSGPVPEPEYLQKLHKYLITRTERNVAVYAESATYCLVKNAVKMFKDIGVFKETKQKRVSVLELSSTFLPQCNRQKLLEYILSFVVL

[3] = system: mGPAT3 mRNA; assay: mGPAT3 mRNA (Q-PCR) in white adipose tissue of ob/ob mice treated with PPARγ agonist; assay type: in vivo, mouse; settings: 15 mg/kg gavage once a day for 21 days
Protocol: To confirm and extend the transcriptional profiling data, TAQMAN® (Applied Biosystems, Foster City, Calif.) real-time quantitative PCR (Q-PCR) analysis was performed using probes specific for mouse and human GPAT3. Briefly, undifferentiated and differentiated 3T3-L1 adipocytes, tissues from normal 8-12 week old male C57B1/6J mice, and tissues from 10-week old male ob/ob and age-matched wild type control mice were obtained as previously described (Lake et al., supra). For PPARγ agonist treatment, 10-week old male ob/ob mice were gavaged once a day with 15 mg/kg rosiglitazone or vehicle control for 21 days. RNA and cDNA were prepared as previously described (Lake et al., supra). Gene profiling data were generated using the MOE430 chip according to the manufacturer's recommendations (Affymetrix, Santa Clara, Calif.). Q-PCR was performed using an ABI PRISM® 7900 sequence detector (Applied Biosystems, Foster City, Calif.) with 18s as an internal control as described (Lake et al., supra). Gene-specific primers and probes were obtained from Applied Biosystems (Cat. Nos. mm00554802_ml and Hs00262010_ml). Relative expression was determined by the […] (Applied Biosystems, Foster City, Calif.).
PPARγ agonists such as rosiglitazone induce expression of the lipogenic program in adipose tissue (Rosen and Spiegelman (2001) J. Biol. Chem. 276:37731-34). […]

substrate concentration at half-maximal activity (hGPAT3-dependent LPA formation) [1]: ~80 µM
SMILES: O=P(O)(O)OCC(O)CO (stereo not drawn) [G3P, glycerol 3-phosphate]

SMILES: CCN1C(=O)C=CC1=O [NEM, N-ethylmaleimide]
mtGPAT1-dependent LPA formation after NEM pretreatment [2]: not affected
increase in LPA formation conferred by hGPAT3 overexpression after NEM pretreatment ([1]; HEK293 lysates): completely abolished
increase in LPA formation conferred by hGPAT3 overexpression after NEM pretreatment ([1]; Sf-9 lysates): completely abolished

substrate concentration at half-maximal activity (hGPAT3-dependent LPA formation) [1]: ~25 µM
SMILES: CCCCCCCCCCCC(=O)SCCNC(=O)CCNC(=O)[C@H](O)C(C)(C)COP(=O)(O)OP(=O)(O)OC[C@H]1O[C@@H](n2cnc3c(N)ncnc32)[C@H](O)[C@@H]1OP(=O)(O)O [lauroyl-CoA]

SMILES: CN(CCOc1ccc(CC2SC(=O)NC2=O)cc1)c1ccccn1 (stereo not drawn) [rosiglitazone]
induced expression of mGPAT3 mRNA in white adipose tissue over control [3]: 4.5 fold
